Reference: patent publication US8309558B2, “Compounds for the treatment of hepatitis C” (Bristol-Myers Squibb Company, priority 2008, dated 2012)

Columns and labels:
[1] = test system: HCV replicon cells; assay: HCV replicon FRET / luciferase assay (96-well plates); type: cell-based; conditions: Hepatitis C virus, Table 1b; HCV replicon; read-out: EC50
Procedure, shortened: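 Percent activity is background-subtracted signal relative to untreated cell wells, with background taken from maximal protease-inhibitor wells. Cytotoxicity is Alamar blue fluorescence relative to controls. Replicon inhibition was read by NS3 FRET peptide cleavage (340/490 nm) or luciferase.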

[2] = target: T1, HCV NS5B RdRp genotype 1b (Hepatitis C virus genotype 1b, UniProt Q9WMX2); assay: Standard HCV NS5B RdRp enzyme assay; type: biochemical; conditions: Table 1b; HCV NS5B RdRp genotype 1b; read-out: IC50
T1 construct: The protein was expressed with an 18 amino acid C-terminal truncation to enhance the solubility; made in house; host or cells: E. coli BL21(DE3), pET21a vector
Procedure, shortened: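 Radiometric SPA measuring 3H-UMP incorporation on polyA/biotin-oligo-dT12 (6 nM/180 nM), 0.29 μM total UTP. Enzyme: NS5B 1b lacking last 18 residues, 28 nM final, 30° C for 60 min in 20 mM Hepes pH 7.5, 2.5 mM MgCl2, 2% DMSO. IC50 from seven-point curves.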

T1 sequence (Q9WMX2 2420-2992): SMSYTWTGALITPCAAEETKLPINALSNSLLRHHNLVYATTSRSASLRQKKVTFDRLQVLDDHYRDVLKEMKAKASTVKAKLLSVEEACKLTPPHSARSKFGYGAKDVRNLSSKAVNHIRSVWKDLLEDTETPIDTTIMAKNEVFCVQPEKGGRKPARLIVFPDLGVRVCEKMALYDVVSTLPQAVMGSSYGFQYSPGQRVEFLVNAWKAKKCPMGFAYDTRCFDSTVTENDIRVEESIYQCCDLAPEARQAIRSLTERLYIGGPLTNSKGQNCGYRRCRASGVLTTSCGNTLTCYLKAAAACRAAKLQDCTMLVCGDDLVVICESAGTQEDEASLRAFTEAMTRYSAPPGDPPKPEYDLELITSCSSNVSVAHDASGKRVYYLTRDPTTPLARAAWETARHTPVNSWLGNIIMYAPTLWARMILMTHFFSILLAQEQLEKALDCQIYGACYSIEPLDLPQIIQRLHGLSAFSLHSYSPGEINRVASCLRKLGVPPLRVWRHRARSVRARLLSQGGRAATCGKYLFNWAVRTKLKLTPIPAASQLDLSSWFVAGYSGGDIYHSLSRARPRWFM

Row | Structure (SMILES) | EC50 [1] | IC50 [2]
1 | CNC(=O)c1c(-c2ccc(F)cc2)oc2cc(N)c(-c3cc(C(=O)NCC(C)C)ccc3OC)cc12 | < 250 nM | < 250 nM
2 | CNC(=O)c1c(-c2ccc(F)cc2)oc2cc([N+](=O)[O-])c(-c3cc(C(=O)NC4(c5ccccc5)CC4)ccc3F)cc12 | < 250 nM | < 250 nM
3 | CNC(=O)c1c(-c2ccc(F)cc2)oc2ccc(-c3ccc(-c4cccc(CO)c4)c(C(=O)NCC(C)C)c3)cc12 | < 250 nM | < 250 nM
4 | CNC(=O)c1c(-c2ccc(F)cc2)oc2ccc(-c3ccc(-c4cnn(C)c4)c(C(=O)NCC(C)C)c3)cc12 | < 250 nM | < 250 nM
5 | CNC(=O)c1c(-c2ccc(F)cc2)oc2ccc(-c3cc(C(=O)NCC(C)C)ccc3OCC(F)F)cc12 | < 250 nM | 250 to 1000 nM
6 | CNC(=O)c1c(-c2ccc(F)cc2)oc2ccc(-c3cc(C(=O)NCC(C)C)ccc3OCc3ccnc(Br)c3)cc12 | 250 to 1000 nM | 250 to 1000 nM
7 | CNC(=O)c1c(-c2ccc(F)cc2)oc2ccc(-c3cc(C(=O)NCC(C)C)ccc3OCCO)cc12 | < 250 nM | < 250 nM
8 | CNC(=O)c1c(-c2ccc(F)cc2)oc2ccc(-c3cc(C(=O)NCC(C)C)ccc3OCCc3c(C)n[nH]c3C)cc12 | < 250 nM | < 250 nM
9 | CNC(=O)c1c(-c2ccc(F)cc2)oc2ccc(-c3cccc(C(=O)NC(C)(C)c4cccnc4)c3)cc12 | < 250 nM | < 250 nM
10 | CNC(=O)c1c(-c2ccc(F)cc2)oc2cc(N(CCO)S(C)(=O)=O)c(-c3cc(C(=O)NC4(c5ccccc5)CC4)ccc3F)cc12 | < 250 nM | < 250 nM
11 | CNC(=O)c1c(-c2ccc(F)cc2)oc2ccc(-c3cc(C(=O)NCC(C)C)ccc3OCCc3c[nH]c4ccccc34)cc12 | 1000 to 10000 nM | 1000 to 10000 nM
12 | CNC(=O)c1c(-c2ccc(F)cc2)oc2ccc(-c3cc(C(=O)NCC(C)C)ccc3OCCCN3CCN(C)CC3)cc12 | < 250 nM | < 250 nM
13 | CCC(O)COc1ccc(C(=O)NCC(C)C)cc1-c1ccc2oc(-c3ccc(F)cc3)c(C(=O)NC)c2c1 (stereo not drawn) | 250 to 1000 nM | 250 to 1000 nM
14 | CNC(=O)c1c(-c2ccc(F)cc2)oc2ccc(-c3cc(C(=O)NCC(C)C)ccc3OCC(C)O)cc12 (stereo not drawn) | < 250 nM | < 250 nM
15 | CNC(=O)c1c(-c2ccc(F)cc2)oc2ccc(-c3cc(C(=O)NCC(C)C)ccc3OCCC3CCCCN3)cc12 (stereo not drawn) | < 250 nM | < 250 nM
16 | CNC(=O)c1c(-c2ccc(F)cc2)oc2ccc(-c3cc(C(=O)NCC(C)C)ccc3OCc3ccncc3)cc12 | < 250 nM | < 250 nM
17 | CNC(=O)c1c(-c2ccc(F)cc2)oc2ccc(-c3cc(C(=O)NCC(C)C)ccc3OCC3CCCN3C(=O)OC(C)(C)C)cc12 (stereo not drawn) | 1000 to 10000 nM | > 10000 nM
18 | CNC(=O)c1c(-c2ccc(F)cc2)oc2ccc(-c3cc(C(=O)NCC(C)C)ccc3OCC3CCCN3)cc12 (stereo not drawn) | 250 to 1000 nM | < 250 nM
19 | CNC(=O)c1c(-c2ccc(F)cc2)oc2cc(N(CCO)S(C)(=O)=O)c(-c3cccc(C(=O)NC(C)(C)C(=O)Nc4cc(C)no4)c3)cc12 | < 250 nM | < 250 nM
20 | CNC(=O)c1c(-c2ccc(F)cc2)oc2ccc(-c3cc(OC)cc(C(=O)NCC(C)C)c3)cc12 | 250 to 1000 nM | 250 to 1000 nM

Row | Structure (SMILES) | EC50 [1] | IC50 [2]
21 | CNC(=O)c1c(-c2ccc(F)cc2)oc2ccc(-c3cc(C(=O)NCC(C)C)ccc3OCCN)cc12 | < 250 nM | < 250 nM
22 | CNC(=O)c1c(-c2ccc(F)cc2)oc2ccc(-c3cc(C(=O)NCC(C)C)cc(-c4ccccc4)c3)cc12 | > 10000 nM | > 10000 nM
23 | CNC(=O)c1c(-c2ccc(F)cc2)oc2ccc(-c3cc(C(=O)NC(C)(C)C)ccc3C)cc12 | < 250 nM | < 250 nM
24 | CNC(=O)c1c(-c2ccc(F)cc2)oc2cc([N+](=O)[O-])c(-c3cc(C(=O)NC4(c5ccccc5)CC4)ccc3OC)cc12 | 250 to 1000 nM | < 250 nM
25 | CNC(=O)c1c(-c2ccc(F)cc2)oc2ccc(-c3cc(C(=O)NC4(C#N)CC4)ccc3C)cc12 | < 250 nM | < 250 nM
26 | CNC(=O)c1c(-c2ccc(F)cc2)oc2cc([N+](=O)[O-])c(-c3ccc(OC)c(C(=O)NC4(c5ccccc5)CC4)c3)cc12 | < 250 nM | < 250 nM
27 | CNC(=O)c1c(-c2ccc(F)cc2)oc2ccc(-c3cc(N)ccc3C)cc12 | 1000 to 10000 nM | 1000 to 10000 nM
28 | CNC(=O)c1c(-c2ccc(F)cc2)oc2cc(N)c(-c3cc(C(=O)NC4(c5ccccc5)CC4)ccc3OC)cc12 | < 250 nM | < 250 nM
29 | CNC(=O)c1c(-c2ccc(F)cc2)oc2ccc(-c3cc(NC(=O)C4(c5ccccc5)CC4)ccc3C)cc12 | 250 to 1000 nM | 1000 to 10000 nM
30 | CNC(=O)c1c(-c2ccc(F)cc2)oc2ccc(-c3cc(C(=O)NC4(C(=O)OC)CC4)ccc3C)cc12 | < 250 nM | < 250 nM
31 | CNC(=O)c1c(-c2ccc(F)cc2)oc2ccc(-c3cc(C(=O)NC4(c5nnc(C)[nH]5)CC4)ccc3C)cc12 | < 250 nM | < 250 nM
32 | CNC(=O)c1c(-c2ccc(F)cc2)oc2cc(N)c(-c3cc(C(=O)NC4(c5ccccc5)CC4)ccc3C)cc12 | < 250 nM | < 250 nM
33 | CNC(=O)c1c(-c2ccc(F)cc2)oc2ccc(-c3cccc(C(=O)NC(C)(C)c4nc(C)no4)c3)cc12 | < 250 nM | < 250 nM
34 | CNC(=O)c1c(-c2ccc(F)cc2)oc2ccc(-c3cc(C(=O)NC4(C(=O)O)CC4)ccc3C)cc12 | 1000 to 10000 nM | < 250 nM
35 | CNC(=O)c1c(-c2ccc(F)cc2)oc2ccc(-c3cc(C(=O)NC4(CO)CC4)ccc3C)cc12 | 1000 to 10000 nM | 1000 to 10000 nM
36 | CNC(=O)c1c(-c2ccc(F)cc2)oc2ccc(-c3cc(C(=O)NC(C)(C)CN4CCOCC4)ccc3C)cc12 | < 250 nM | < 250 nM
37 | CNC(=O)c1c(-c2ccc(F)cc2)oc2ccc(-c3cc(C(=O)NCC(C)C)ccc3OC(F)F)cc12 | < 250 nM | < 250 nM
38 | CNC(=O)c1c(-c2ccc(F)cc2)oc2ccc(-c3cc(C(=O)NC(C)(C)C4CC4)ccc3C)cc12 | < 250 nM | < 250 nM
39 | CNC(=O)c1c(-c2ccc(F)cc2)oc2cc(NS(C)(=O)=O)c(-c3cc(C(=O)NC4(c5ccccc5)CC4)ccc3C)cc12 | < 250 nM | < 250 nM
40 | CNC(=O)c1c(-c2ccc(F)cc2)oc2ccc(-c3cc(C(=O)NC4(c5nnn[nH]5)CC4)ccc3C)cc12 | 1000 to 10000 nM | < 250 nM

Row | Structure (SMILES) | EC50 [1] | IC50 [2]
41 | CNC(=O)c1c(-c2ccc(F)cc2)oc2ccc(-c3cc(C(=O)NC4(c5ccccc5)CC4)ccc3O)cc12 | < 250 nM | < 250 nM
42 | CNC(=O)c1c(-c2ccc(F)cc2)oc2ccc(-c3ccc(O)c(C(=O)NCC(C)C)c3)cc12 | > 10000 nM | 1000 to 10000 nM
43 | CNC(=O)c1c(-c2ccc(F)cc2)oc2cc(N(CCO)S(C)(=O)=O)c(-c3cccc(C(=O)NC(C)(C)c4nc(C)no4)c3)cc12 | < 250 nM | < 250 nM
44 | CNC(=O)c1c(-c2ccc(F)cc2)oc2cc(N(CCO)S(C)(=O)=O)c(-c3cc(C(=O)NC4(c5ccccc5)CC4)ccc3C)cc12 | < 250 nM | < 250 nM
45 | CNC(=O)c1c(-c2ccc(F)cc2)oc2ccc(-c3cc(C(=O)NCC(C)C)ccc3OCC3CCNC3)cc12 (stereo not drawn) | < 250 nM | < 250 nM
46 | CNC(=O)c1c(-c2ccc(F)cc2)oc2ccc(-c3cc(C(=O)NCC(C)C)ccc3OCC3CCCNC3)cc12 (stereo not drawn) | < 250 nM | < 250 nM
47 | CNC(=O)c1c(-c2ccc(F)cc2)oc2ccc(-c3cc(C(=O)NC4(c5ccccn5)CC4)c(OC)cc3Cl)cc12 | < 250 nM | < 250 nM
48 | CNC(=O)c1c(-c2ccc(F)cc2)oc2ccc(-c3cc(C(=O)NCC(C)C)ccc3OCCC(N)=O)cc12 | > 10000 nM | > 10000 nM
49 | CNC(=O)c1c(-c2ccc(F)cc2)oc2ccc(-c3cc(C(=O)NCC(C)C)ccc3OCCCN)cc12 | < 250 nM | < 250 nM
50 | CNC(=O)c1c(-c2ccc(F)cc2)oc2ccc(-c3cc(C(=O)NC4(c5ccc(F)cc5)CC4)ccc3C)cc12 | < 250 nM | < 250 nM
51 | CNC(=O)c1c(-c2ccc(F)cc2)oc2ccc(-c3cc(C(=O)NCC(C)C)ccc3OC3CCC(N)C3)cc12 (stereo not drawn) | < 250 nM | < 250 nM
52 | CNC(=O)c1ccc(-c2ccc(-c3ccc4oc(-c5ccc(F)cc5)c(C(=O)NC)c4c3)cc2C(=O)NCC(C)C)cn1 | > 10000 nM | > 10000 nM
53 | CNC(=O)c1c(-c2ccc(F)cc2)oc2ccc(-c3cc(C(=O)NCC(C)C)ccc3OCCNC(N)=O)cc12 | < 250 nM | < 250 nM
54 | CNC(=O)c1c(-c2ccc(F)cc2)oc2ccc(-c3ccc(-c4ccc(C(N)=O)cc4)c(C(=O)NCC(C)C)c3)cc12 | > 10000 nM | < 250 nM
55 | CNC(=O)c1c(-c2ccc(F)cc2)oc2ccc(-c3ccc(-c4cncc(C#N)c4)c(C(=O)NCC(C)C)c3)cc12 | 250 to 1000 nM | < 250 nM
56 | CNC(=O)c1c(-c2ccc(F)cc2)oc2ccc(-c3cc(C(=O)NC4(c5nnc(C6CC6)[nH]5)CC4)ccc3C)cc12 | < 250 nM | < 250 nM
57 | CNC(=O)c1c(-c2ccccc2)oc2ccc(-c3cc(C(=O)NC4(c5nnc(-c6ccccc6)[nH]5)CC4)ccc3C)cc12 | < 250 nM | < 250 nM
58 | CNC(=O)c1c(-c2ccc(F)cc2)oc2ccc(-c3cc(C(=O)NC4(c5ccccn5)CC4)c(OC)cc3C)cc12 | < 250 nM | < 250 nM
59 | CNC(=O)c1c(-c2ccc(F)cc2)oc2ccc(-c3cc(C(=O)NC4(c5ccccn5)CC4)c(F)cc3Cl)cc12 | < 250 nM | < 250 nM
60 | CNC(=O)c1c(-c2ccc(F)cc2)oc2ccc(-c3cncc(C(=O)NC(C)(C)C)c3)cc12 | < 250 nM | < 250 nM
